Test results: US20240327412A1, “FACTOR XIIA INHIBITORS” (KALVISTA PHARMACEUTICALS LIMITED, priority 2021, published 2024)

Target: T1, Human Factor XIIa (Homo sapiens, UniProt P00748)
T1 construct: Proteolytic cleavage of FXII to heavy and light chains of FXIIa dramatically increases catalytic activity; purchased Enzyme Research Laboratories
T1 sequence (P00748 373-615 limits assumed): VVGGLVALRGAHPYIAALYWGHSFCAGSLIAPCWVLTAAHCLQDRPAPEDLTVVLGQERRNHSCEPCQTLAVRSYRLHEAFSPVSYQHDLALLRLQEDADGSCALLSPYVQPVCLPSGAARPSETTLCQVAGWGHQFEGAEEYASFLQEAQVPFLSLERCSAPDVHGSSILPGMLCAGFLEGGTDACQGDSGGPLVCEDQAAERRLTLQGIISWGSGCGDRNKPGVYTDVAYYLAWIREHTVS
T1 sequence (P00748 20-372 partner limits assumed): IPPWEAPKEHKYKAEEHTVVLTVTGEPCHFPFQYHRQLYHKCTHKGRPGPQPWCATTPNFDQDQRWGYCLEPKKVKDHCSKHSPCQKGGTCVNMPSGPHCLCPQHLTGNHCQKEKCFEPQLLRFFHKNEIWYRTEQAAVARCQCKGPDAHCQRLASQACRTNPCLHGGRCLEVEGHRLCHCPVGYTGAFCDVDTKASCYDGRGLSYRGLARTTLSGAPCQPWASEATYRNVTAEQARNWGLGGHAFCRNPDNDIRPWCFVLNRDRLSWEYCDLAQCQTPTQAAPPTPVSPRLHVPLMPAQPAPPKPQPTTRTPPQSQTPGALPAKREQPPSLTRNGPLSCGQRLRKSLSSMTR
Experiment: Determination of FXIIa inhibition (fluorogenic substrate H-DPro-Phe-Arg-AFC, IC50 assay)
Type: biochemical
Details: substrate at Km concentration, 25° C.; category scale; read-out: Human FXII IC50 (nm)
Method: In vitro inhibition of Factor XIIa was determined using an IC50 assay based on standard literature methods (see e.g Baeriswyl et al., ACS Chem. Biol., 2015, 10 (8) 1861; Bouckaert et al., European Journal of Medicinal Chemistry 110 (2016) 181). Human Factor XIIa (Enzyme Research Laboratories) was incubated at 25° C. with the fluorogenic substrate H-DPro-Phe-Arg-AFC (Peptide Protein Science) and various concentrations of the test compound. Protease activity was measured by monitoring the accumulation of liberated fluorescence from the substrate over 5 min at 25° C. The linear rate of fluorescence increase per minute was expressed as percentage (%) activity. The Km for the cleavage of the substrate by FXIIa was determined by standard transformation of the Michaelis-Menten equation. The compound inhibitor assays were performed at substrate Km concentration. IC50 values were calculated as the concentration of inhibitor giving 50% inhibition (IC50) of the uninhibited enzyme activity (100%).

SMILES	IC50 [nM]
Cc1cnc2ccc(OCC34COC(CNc5ccccc5C#N)(C3)C4)cn12 [Example 6658, 2-(((4-(((3-methylimidazo[1,2-a]pyridin-6-yl)oxy)methyl)-2-oxabicyclo[2.1.1]hexan-1-yl)methyl)amino)benzonitrile]	10000 to 40000
Nc1nccc2c(NCC34CC(COc5ccc6nncn6c5)(CCO3)C4)cccc12 [Example 10929, N5-((5-(([1,2,4]triazolo[4,3-a]pyridin-6-yloxy)methyl)-2-oxabicyclo[3.1.1]heptan-1-yl)methyl)isoquinoline-1,5-diamine]	300 to 1000
Cc1cnc2cc(OCC34CCOC(CNc5cccc6c(N)nccc56)(C3)C4)ccn12 [Example 10930, N5-((5-(((3-methylimidazo[1,2-a]pyridin-7-yl)oxy)methyl)-2-oxabicyclo[3.1.1]heptan-1-yl)methyl)isoquinoline-1,5-diamine]	10 to 100
Nc1nccc2c(NCC34CC(COc5ccc6c(c5)CNC6=O)(CCO3)C4)cccc12 [Example 10931, 5-((1-(((1-aminoisoquinolin-5-yl)amino)methyl)-2-oxabicyclo[3.1.1]heptan-5-yl)methoxy)isoindolin-1-one]	10 to 100
Nc1nccc2c(NCC34CC(COc5ccn6c(C(F)(F)F)cnc6c5)(CCO3)C4)cccc12 [Example 10932, N5-((5-(((3-(trifluoromethyl)imidazo[1,2-a]pyridin-7-yl)oxy)methyl)-2-oxabicyclo[3.1.1]heptan-1-yl)methyl)isoquinoline-1,5-diamine]	100 to 300
CC(C)n1ccc(OCC23CCOC(CNc4cccc5c(N)nccc45)(C2)C3)cc1=O [Example 10934, 4-((1-(((1-aminoisoquinolin-5-yl)amino)methyl)-2-oxabicyclo[3.1.1]heptan-5-yl)methoxy)-1-isopropylpyridin-2(1H)-one]	300 to 1000
Nc1nccc2c(NCC34CC(COc5ccon5)(CCO3)C4)cccc12 [Example 10936, N5-((5-((isoxazol-3-yloxy)methyl)-2-oxabicyclo[3.1.1]heptan-1-yl)methyl)isoquinoline-1,5-diamine]	3000 to 10000
Nc1nccc2c(NCC34CC(COc5ccncn5)(CCO3)C4)cccc12 [Example 10937, N5-((5-((pyrimidin-4-yloxy)methyl)-2-oxabicyclo[3.1.1]heptan-1-yl)methyl)isoquinoline-1,5-diamine]	3000 to 10000
Nc1nccc2c(NCC34CC(COc5ccc6c(c5)CCNC6=O)(CCO3)C4)cccc12 [Example 10938, 6-((1-(((1-aminoisoquinolin-5-yl)amino)methyl)-2-oxabicyclo[3.1.1]heptan-5-yl)methoxy)-3,4-dihydroisoquinolin-1(2H)-one]	300 to 1000
Cn1cc(OCC23CCOC(CNc4cccc5c(N)nccc45)(C2)C3)ccc1=O [Example 10943, 5-((1-(((1-aminoisoquinolin-5-yl)amino)methyl)-2-oxabicyclo[3.1.1]heptan-5-yl)methoxy)-1-methylpyridin-2(1H)-one]	1000 to 3000
COc1cc(OCC23CCOC(CNc4cccc5c(N)nccc45)(C2)C3)ccn1 [Example 10944, N5-((5-(((2-methoxypyridin-4-yl)oxy)methyl)-2-oxabicyclo[3.1.1]heptan-1-yl)methyl)isoquinoline-1,5-diamine]	1000 to 3000
Cn1c(OCC23CCOC(CNc4cccc5c(N)nccc45)(C2)C3)cccc1=O [Example 10945, 6-((1-(((1-aminoisoquinolin-5-yl)amino)methyl)-2-oxabicyclo[3.1.1]heptan-5-yl)methoxy)-1-methylpyridin-2(1H)-one]	3000 to 10000
Cn1nncc1OCC12CCOC(CNc3cccc4c(N)nccc34)(C1)C2 [Example 10946, N5-((5-(((1-methyl-1H-1,2,3-triazol-5-yl)oxy)methyl)-2-oxabicyclo[3.1.1]heptan-1-yl)methyl)isoquinoline-1,5-diamine]	3000 to 10000
Cc1cc(OCC23CCOC(CNc4cccc5c(N)nccc45)(C2)C3)ccn1 [Example 10953, N5-((5-(((2-methylpyridin-4-yl)oxy)methyl)-2-oxabicyclo[3.1.1]heptan-1-yl)methyl)isoquinoline-1,5-diamine]	100 to 300
COc1ccncc1OCC12CCOC(CNc3cccc4c(N)nccc34)(C1)C2 [Example 10954, N5-((5-(((4-methoxypyridin-3-yl)oxy)methyl)-2-oxabicyclo[3.1.1]heptan-1-yl)methyl)isoquinoline-1,5-diamine]	3000 to 10000
Cc1ccnc(OCC23CCOC(CNc4cccc5c(N)nccc45)(C2)C3)c1 [Example 10955, N5-((5-(((4-methylpyridin-2-yl)oxy)methyl)-2-oxabicyclo[3.1.1]heptan-1-yl)methyl)isoquinoline-1,5-diamine]	1000 to 3000
Cc1ccc(OCC23CCOC(CNc4cccc5c(N)nccc45)(C2)C3)nc1 [Example 10956, N5-((5-(((5-methylpyridin-2-yl)oxy)methyl)-2-oxabicyclo[3.1.1]heptan-1-yl)methyl)isoquinoline-1,5-diamine]	1000 to 3000
Cc1cccc(OCC23CCOC(CNc4cccc5c(N)nccc45)(C2)C3)n1 [Example 10957, N5-((5-(((6-methylpyridin-2-yl)oxy)methyl)-2-oxabicyclo[3.1.1]heptan-1-yl)methyl)isoquinoline-1,5-diamine]	3000 to 10000
c1cc2cc(NCC34CC(COc5ccn6ccnc6c5)(CCO3)C4)ccc2cn1 [Example 10958, N-((5-((imidazo[1,2-a]pyridin-7-yloxy)methyl)-2-oxabicyclo[3.1.1]heptan-1-yl)methyl)isoquinolin-6-amine]	10000 to 40000

The next lines start with the values.

IC50 [nM]	SMILES
40000 to 100000	Cc1cnc2ccc(OCC34COC(CNc5ccccc5CC(F)(F)F)(C3)C4)cn12 [Example 6659, N-((4-(((3-methylimidazo[1,2-a]pyridin-6-yl)oxy)methyl)-2-oxabicyclo[2.1.1]hexan-1-yl)methyl)-2-(2,2,2-trifluoroethyl)aniline]
3000 to 10000	Cc1cnc2ccc(OCC34COC(CNc5ccnc(N)c5)(C3)C4)cn12 [Example 6660, N4-((4-(((3-methylimidazo[1,2-a]pyridin-6-yl)oxy)methyl)-2-oxabicyclo[2.1.1]hexan-1-yl)methyl)pyridine-2,4-diamine]
10000 to 40000	Cc1cnc2ccc(OCC34COC(CNc5cccnc5)(C3)C4)cn12 [Example 6661, N-((4-(((3-methylimidazo[1,2-a]pyridin-6-yl)oxy)methyl)-2-oxabicyclo[2.1.1]hexan-1-yl)methyl)pyridin-3-amine]
300 to 1000	CC1(C)OC2(COc3cccc4c(N)nccc34)CC1(COc1ccn3ccnc3c1)C2 [Example 7702, 5-((4-((imidazo[1,2-a]pyridin-7-yloxy)methyl)-3,3-dimethyl-2-oxabicyclo[2.1.1]hexan-1-yl)methoxy)isoquinolin-1-amine]
1000 to 3000	Cn1cc(Cl)c(OCC23CCOC(CNc4cccc5c(N)nccc45)(C2)C3)cc1=O [Example 10933, 4-((1-(((1-aminoisoquinolin-5-yl)amino)methyl)-2-oxabicyclo[3.1.1]heptan-5-yl)methoxy)-5-chloro-1-methylpyridin-2(1H)-one]
300 to 1000	CN1CCc2cc(OCC34CCOC(CNc5cccc6c(N)nccc56)(C3)C4)ccc2C1=O [Example 10939, 6-((1-(((1-aminoisoquinolin-5-yl)amino)methyl)-2-oxabicyclo[3.1.1]heptan-5-yl)methoxy)-2-methyl-3,4-dihydroisoquinolin-1(2H)-one]
300 to 1000	Nc1nccc2c(NCC34CC(COc5ccc6c(c5)C(=O)NC6)(CCO3)C4)cccc12 [Example 10941, 6-((1-(((1-aminoisoquinolin-5-yl)amino)methyl)-2-oxabicyclo[3.1.1]heptan-5-yl)methoxy)isoindolin-1-one]
1000 to 3000	CC(C)c1cc(OCC23CCOC(CNc4cccc5c(N)nccc45)(C2)C3)ncn1 [Example 10948, N5-((5-(((6-isopropylpyrimidin-4-yl)oxy)methyl)-2-oxabicyclo[3.1.1]heptan-1-yl)methyl)isoquinoline-1,5-diamine]
300 to 1000	CC(C)c1cc(OCC23CCOC(CNc4cccc5c(N)nccc45)(C2)C3)cc(=O)n1C [Example 10949, 4-((1-(((1-aminoisoquinolin-5-yl)amino)methyl)-2-oxabicyclo[3.1.1]heptan-5-yl)methoxy)-6-isopropyl-1-methylpyridin-2(1H)-one]
300 to 1000	Cn1c(C(F)(F)F)cc(OCC23CCOC(CNc4cccc5c(N)nccc45)(C2)C3)cc1=O [Example 10951, 4-((1-(((1-aminoisoquinolin-5-yl)amino)methyl)-2-oxabicyclo[3.1.1]heptan-5-yl)methoxy)-1-methyl-6-(trifluoromethyl)pyridin-2(1H)-one]
